For twelve compounds, IC50 results are on record in patent US20220259212A1, “INHIBITORS OF INDOLEAMINE 2,3-DIOXYGENASE AND/OR TRYPTOPHAN 2,3-DIOXYGENASE” (Idorsia Pharmaceuticals Ltd, priority 2019, published 2022).

The target of one assay is T1, IDO1 in SKOV3 cells (Homo sapiens, UniProt P14902).
T1 construct: SKOV3 cells (NCI, No. 0503405) which upregulate IDO1 after stimulation with IFNγ; host or cells: SKOV3 cells stimulated with IFNγ
Briefly: Cell-based IDO inhibitory activity in IFNγ-stimulated SKOV3 cells (NFK + kynurenine by LCMS). The note with it: IFNγ 50 ng/ml, 200 uM L-tryptophan, 24 hours. From the text:
3) Testing Compounds for IDO/TDO Inhibitory Activity and Toxicity in Cell-Based Assays
SW48 cells (ATCC, CCL-231) are used to measure compounds for TDO inhibitory activity and are routinely maintained in DMEM high glucose/GlutaMAX™/pyruvate 90% (v/v), FCS 10% (v/v), Penicilin/streptomycin 1% (v/v). SKOV3 cells (NCI, No. 0503405) which upregulate IDO1 after stimulation with IFNγ are used to measure compounds for IDO inhibitory activity. SKOV3 cells are routinely maintained in RPMI 90% (v/v), FCS 10% (v/v), Penicilin/streptomycin 1% (v/v). SW48 or SKOV3 cells are seeded in 384 well plates at a density of 8000 cells in 45 ul per well or 4000 cells in 45 ul per well, respectively. Plates are incubated at 37° C./5% CO2 for 24 hours. On the next day, 10 ul compound in serial dilutions (tested concentration range 10 uM-40 nM) and 200 uM L-tryptophan are added (SKV03 receive in addition IFNγ at a final concentration of 50 ng/ml). After 24 hours of incubation at 37° C./5% CO2, 3 ul of the supernatant per well is transferred to 25 ul H2O per well in a 384 deep well plate and 25 ul of the supernatant per well is transferred to waste. The SKOV3 and SW48 cell plates with 25 ul supernatant per well remaining are used to measure viability (see below). The 384 deep well plate containing 3 ul supernatant and 25 ul H2O per well are further processed for LCMS: After the addition of 100 ul L-tryptophan-(indole-d5) (Sigma 615862) at 200 nM in methanol, the 384 deep well plates are centrifuged for 10 minutes at 3220×g at 4° C., 75 ul H2O is added per well and plates centrifuged again for 10 minutes at 3220×g at 4° C. N-formylkynurenine and kynurenine are quantified by LCMS, normalized to the internal standard L-tryptophan-(indole-d5) and the sum is calculated. Samples with 0.2% DMSO (0% effect) and a TDO/IDO inhibitor (100% effect) are used as control samples to set the parameters for the non-linear regression necessary for the determination of the IC50 for each compound. For each compound concentration the percentage of activity compared to 0% and 100% effect is calculated as average±STDEV (each concentration measured in duplicate). IC50 values and curves are generated with XLfit software (IDBS) using Dose-Response One Site model 203. The calculated IC50 values may fluctuate depending on the daily cellular assay performance. Fluctuations of this kind are known to those skilled in the art. When compounds are measured multiple times, mean values are given.

Assay [1] has as its target T2, Recombinant full-length human IDO1 (Homo sapiens, UniProt P14902).
T2 construct: Recombinant full-length human IDO1 with a N-terminal hexahistidine tag; hexahistidine (N); made in house; host or cells: E. coli
Briefly: IDO1 enzymatic assay (NFK quantified by LCMS). The class given is biochemical. Particulars: 2 nM enzyme, 5 μM L-tryptophan, 30 min pre-incubation, pH6.5; mean if measured multiple times; read-out: hIDO activity (IC50 in nM). How it is done:
1) Testing Compounds for IDO Inhibitory Activity in an IDO1 Enzymatic Assay:
Recombinant full-length human IDO1 with a N-terminal hexahistidine tag expressed in E. coli and purified to homogeneity is incubated at a final concentration of 2 nM in assay buffer consisting of 37.5 mM phosphate buffer at pH6.5 supplemented with 10 mM ascorbic acid, 0.45 μM methylene blue, 50 U/ml catalase, 0.01% BSA, and 0.01% Tween 20 (protocol modified from Seegers et al, JBS 2014). Example compounds are serially diluted in DMSO, further diluted in phosphate buffer, and added to the enzyme at final concentrations ranging from 10 μM to 0.5 nM. The final DMSO concentration is 0.6%. Following a pre-incubation of 30 minutes at RT, the reaction is started by the addition of L-tryptophan at a final concentration of 5 μM in assay buffer. After 30 minutes of incubation at RT, 3 μL of the 20 μl reaction mixture are transferred to a 384 deep well plate containing 25 μL of deionized water. 100 μl of 200 nM L-Tryptophan-(indole-d5) in cold 100% methanol are added followed by a 10 minutes centrifugation at 3220×g at 4° C. An additional 75 μL of deionized water are then added followed by a 10 minutes centrifugation at 3220×g at 4° C. The product of the reaction N′-Formylkynurenine (NFK) is quantified by LCMS and normalized to the L-Tryptophan-(indole-d5) signal. Samples with 0.6% DMSO (0% effect) and a TDO/IDO inhibitor (100% effect) are used as control samples to set the parameters for the non-linear regression necessary for the determination of the half-maximal inhibitory concentration (IC50) for each compound. For each compound concentration the percentage of activity compared to 0% and 100% effect is calculated as average±STDEV (each concentration measured in duplicate). IC50 values and curves are generated with XLfit software (IDBS) using Dose-Response One Site model 203 (four parameter logistic curve model). The calculated IC50 values may fluctuate depending on the daily assay performance. Fluctuations of this kind are known to those skilled in the art. When compounds are measured multiple times, mean values are given.

Assay [2] addresses T3, Recombinant human TDO comprising amino acids 19-407 (Homo sapiens, UniProt P48775).
T3 construct: human TDO comprising amino acids 19-407; hexahistidine (N); made in house; host or cells: E. coli
The experiment in a line: TDO2 enzymatic assay (NFK quantified by LCMS). Format: biochemical. Particulars: 15 nM enzyme, 200 μM L-tryptophan, 30 min pre-incubation, pH7; mean if measured multiple times; read-out: hTDO activity (IC50 in nM). How it is done: 2) Testing Compounds for TDO Inhibitory Activity in a TDO2 Enzymatic Assay:
Recombinant human TDO comprising amino acids 19-407 with a N-terminal hexahistidine tag expressed in E. coli and purified to homogeneity is incubated at a final concentration of 15 nM in assay buffer consisting of 75 mM phosphate buffer at pH7 supplemented with 100 μM ascorbic acid, 50 U/ml Catalase, 0.01% BSA, and 0.01% Tween 20 (protocol modified from Seegers et al, JBS 2014). Example compounds are serially diluted in DMSO, further diluted in phosphate buffer, and added to the reaction mixture at final concentrations ranging from 10 μM to 0.5 nM. The final DMSO concentration is 0.6%. Following a pre-incubation of 30 minutes at RT, the reaction is started by the addition of L-tryptophan at a final concentration of 200 μM in assay buffer. After 30 minutes of incubation at RT, 3 μL of the reaction mixture are transferred to a 384 deep well plate containing 25 μL of deionized water. 100 μl of 200 nM L-Tryptophan-(indole-d5) in cold 100% methanol are added followed by a 10 minutes centrifugation at 3220×g at 4° C. An additional 75 μL of deionized water are then added followed by a 10 minutes centrifugation at 3220×g at 4° C. The product of the reaction N′-Formylkynurenine (NFK) is quantified by LCMS and normalized to the L-Tryptophan-(indole-d5) signal. Samples with 0.6% DMSO (0% effect) and a TDO/IDO inhibitor (100% effect) are used as control samples to set the parameters for the non-linear regression necessary for the determination of the half-maximal inhibitory concentration (IC50) for each compound. For each compound concentration the percentage of activity compared to 0% and 100% effect is calculated as average±STDEV (each concentration measured in duplicate). IC50 values and curves are generated with XLfit software (IDBS) using Dose-Response One Site model 203 (four parameter logistic curve model). The calculated IC50 values may fluctuate depending on the daily assay performance. Fluctuations of this kind are known to those skilled in the art. When compounds are measured multiple times, mean values are given.

T3 sequence (P48775 19-406 limits assumed): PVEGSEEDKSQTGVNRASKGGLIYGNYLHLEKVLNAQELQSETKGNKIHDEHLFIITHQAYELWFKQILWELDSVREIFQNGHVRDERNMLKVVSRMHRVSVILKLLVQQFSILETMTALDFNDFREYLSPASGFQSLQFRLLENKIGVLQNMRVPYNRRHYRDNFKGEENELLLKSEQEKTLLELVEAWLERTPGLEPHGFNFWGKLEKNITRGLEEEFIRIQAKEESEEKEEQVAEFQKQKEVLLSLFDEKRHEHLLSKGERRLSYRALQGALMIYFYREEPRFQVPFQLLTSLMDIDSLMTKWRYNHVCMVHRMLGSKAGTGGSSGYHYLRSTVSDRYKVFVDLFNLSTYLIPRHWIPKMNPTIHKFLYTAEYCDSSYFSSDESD
T1 sequence (P14902 whole entry): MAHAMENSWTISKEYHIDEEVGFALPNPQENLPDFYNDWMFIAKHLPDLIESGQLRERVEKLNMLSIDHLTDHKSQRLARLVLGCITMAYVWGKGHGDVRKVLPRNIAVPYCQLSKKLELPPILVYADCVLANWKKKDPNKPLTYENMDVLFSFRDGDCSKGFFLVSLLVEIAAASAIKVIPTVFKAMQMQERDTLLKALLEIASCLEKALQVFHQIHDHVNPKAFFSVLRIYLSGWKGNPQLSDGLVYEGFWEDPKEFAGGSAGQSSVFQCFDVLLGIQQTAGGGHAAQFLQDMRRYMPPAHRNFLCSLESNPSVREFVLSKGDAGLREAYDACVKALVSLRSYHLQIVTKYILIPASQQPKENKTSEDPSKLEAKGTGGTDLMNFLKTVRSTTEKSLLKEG
T2 sequence (P14902 whole entry): as above

The IC50 is the concentration at which inhibition is half-maximal. In the case of `CN1CCc2cc(-n3cc([C@H](O)c4c(C5CC5)ncc5cncn45)nn3)ccc21` [Example 47, (R)-(6-Cyclopropyl-imidazo[1,5-a]pyrazin-5-yl)-[1-(1-methyl-2,3-dihydro-1H-indol-5-yl)-1H-[1,2,3]triazol-4-yl]-methanol], the IC50 on IDO1 in SKOV3 cells was 145 nM; in assay [1], 7.76 nM; in assay [2], over 10200 nM.

Regarding `COc1ccc(-n2cc([C@H](O)c3c(C4CC4)ccc4cncn34)nn2)cc1Cl` [Example 8a, (R)-[1-(3-Chloro-4-methoxy-phenyl)-1H-[1,2,3]triazol-4-yl]-(6-cyclopropyl-imidazo[1,5-a]pyridin-5-yl)-methanol], the results for the IC50 (on IDO1 in SKOV3 cells; in assay [1]; in assay [2]) were 18.9 nM, 9.85 nM and over 10200 nM, respectively.

For `Oc1ccc(-n2cc([C@H](O)c3c(C4CC4)ncc4cncn34)nn2)cc1F` [Example 27, 4-{4-[(R)-(6-Cyclopropyl-imidazo[1,5-a]pyrazin-5-yl)-hydroxy-methyl]-[1,2,3]triazol-1-yl}-2-fluoro-phenol], the values for the IC50 (at IDO1 in SKOV3 cells; in assay [1]; in assay [2]) were 47.4 nM, 5.6 nM and over 10200 nM, respectively.

In the case of `Cc1c(C(O)c2c(Cl)ccc3cncn23)nnn1-c1ccc(O)c(Cl)c1` (racemic) [Example 43, rac-2-Chloro-4-{4-[(6-chloro-imidazo[1,5-a]pyridin-5-yl)-hydroxy-methyl]-5-methyl-[1,2,3]triazol-1-yl}-phenol], the IC50 was determined as 64.2 nM on IDO1 in SKOV3 cells, 3.88 nM in assay [1] and 832 nM in assay [2].

Take `COC(=O)Nc1ccc(-n2cc(C(O)c3c(C4CC4)ncc4cncn34)nn2)cc1` (racemic) [Example 12, rac-(4-{4-[(6-Cyclopropyl-imidazo[1,5-a]pyrazin-5-yl)-hydroxy-methyl]-[1,2,3]triazol-1-yl}-phenyl)-carbamic acid methyl ester]: the concentration for half-maximal inhibition (IC50) at IDO1 in SKOV3 cells is 73.9 nM; in assay [1] it was 21.5 nM; in assay [2] it was over 10200 nM.

Take `OC(c1ccc(-c2ccccc2)s1)c1c(Cl)ccc2cncn12` (racemic) [Ref4, rac-(6-Chloro-imidazo[1,5-a]pyridin-5-yl)-(5-phenyl-thiophen-2-yl)-methanol, reference compound]: the figures for the IC50 (at IDO1 in SKOV3 cells; in assay [1]; in assay [2]) were 8830 nM, 275 nM and 8650 nM, respectively.

`CCc1ncc2cncn2c1C(O)c1cn(-c2cc(F)c(OC)cc2F)nn1` (racemic) [Example 32, rac-[1-(2,5-Difluoro-4-methoxy-phenyl)-1H-[1,2,3]triazol-4-yl]-(6-ethyl-imidazo[1,5-a]pyrazin-5-yl)-methanol]: the values for the IC50 (at IDO1 in SKOV3 cells; in assay [1]; in assay [2]) were 70.2 nM, 14.3 nM and over 10200 nM, respectively.

In the case of `CNc1ccc(-n2cc([C@H](O)c3c(C4CC4)ncc4cncn34)nn2)cc1` [Example 42, (R)-(6-Cyclopropyl-imidazo[1,5-a]pyrazin-5-yl)-[1-(4-methylamino-phenyl)-1H-[1,2,3]triazol-4-yl]-methanol], the figures for the IC50 (on IDO1 in SKOV3 cells; in assay [1]; in assay [2]) were 199 nM, 13.5 nM and over 10200 nM, respectively.

In the case of `COc1ccc(-n2cc(C(O)c3c(C4CC4)ccc4cncn34)nn2)cc1` (racemic) [Example 4, rac-(6-Cyclopropyl-imidazo[1,5-a]pyridin-5-yl)-[1-(4-methoxy-phenyl)-1H-[1,2,3]triazol-4-yl]-methanol], the values for the IC50 (at IDO1 in SKOV3 cells; in assay [1]; in assay [2]) were 42.2 nM, 3.7 nM and over 10200 nM, respectively.

For the compound `COc1ccc(-n2cc(C(O)c3c(C4CC4)ccc4cncn34)nn2)cc1Cl` (racemic) [Example 8, rac-[1-(3-Chloro-4-methoxy-phenyl)-1H-[1,2,3]triazol-4-yl]-(6-cyclopropyl-imidazo[1,5-a]pyridin-5-yl)-methanol], the IC50 at IDO1 in SKOV3 cells was 8.8 nM; in assay [1], 7.41 nM; in assay [2], over 10200 nM.

Take `Cc1c(C(O)c2c(Cl)ccc3cncn23)nnn1-c1ccc(O)c(F)c1` (racemic) [Example 48, rac-4-{4-[(6-Chloro-imidazo[1,5-a]pyridin-5-yl)-hydroxy-methyl]-5-methyl-[1,2,3]triazol-1-yl}-2-fluoro-phenol]: the IC50 at IDO1 in SKOV3 cells came out at 29 nM; in assay [1] it was 2.29 nM; in assay [2], 1460 nM.

Consider `OC(c1cn(-c2ccc(OCC3(F)COC3)cc2)nn1)c1c(C2CC2)ncc2cncn12` (racemic) [Example 16, rac-(6-Cyclopropyl-imidazo[1,5-a]pyrazin-5-yl)-{1-[4-(3-fluoro-oxetan-3-ylmethoxy)-phenyl]-1H-[1,2,3]triazol-4-yl}-methanol], for which the IC50 on IDO1 in SKOV3 cells is 94.6 nM; in assay [1] it was 33.2 nM; in assay [2] it was over 10200 nM.
